Tests used:
Anaerobic bacteria = experiment: Anaerobic bacterial count in pulp; type: cell-based; details: pasteurized 1 h +80° C., 50 mg/l monochloramine then 10 mg/l daily, 4 d at +40° C., n = 6
Procedure: (§1) 50 g liner board was re-pulped with process water from a mill using recycled fiber. The final consistency of the pulp was 1.0% and the liner was from a mill using ~50% unbleached kraft pulp and ~50% recycled fiber. This mill uses about 6 kg/ton wet-end starch in the production of the liner. The pulp suspension was divided into 12 bottles. Six of the bottles were put into an incubator with no other treatment. The other 6 bottles were first pasteurized (1 h, +80° C.) in order to inactivate any enzymes present. After that, the bottles were treated with a combination of a biocide (Mixture of DBNPA, bronopol and CMIT/MIT, 100 mg/l as active substance) and either zinc or zinc comprising compound (25 mg/l as Zn^2+). After this, all 12 bottles were kept at +40° C. with shaking for 3 days. At the beginning of the incubation, the pH of the pulp was 6.64, redox+160 mV and conductivity 5.46 mS/cm.
After 3 d pH, ORP, and total and cellulolytic bacterial amounts were measured from each bottle.
50 g liner board (from two different mills: 50% from a mill using ~50% unbleached kraft pulp and ~50% recycled fiber and 50% from a mill using 100% recycled fiber) was re-pulped with process water from a third mill using recycled fiber. The final consistency of the pulp was 1.0%. […]
After 4 d pH, ORP, bacterial amounts and cellulase activity were measured from each bottle.

cellulase = experiment: Cellulase activity of RCF pulp samples, Enzchek Cellulase substrate; type: biochemical
Procedure: Cellulase activity expressed here as “mU/ml” may be obtained using Enzchek Cellulase substrate (Life Technologies, part of Thermo Fisher Scientific), using the manufacturer's instructions and measurement protocol where sodium acetate buffer is adjusted to pH 6.0 and the samples are diluted 1/10 to minimize inhibition and quenching by fibers.
For example, in soil research microbial cellulolytic potential can be tested with agar plate cultivation, but there are also commercially available substrates for measurement of cellulase activity directly from aqueous samples (cellulase production organism cultivation broths/extracts).
According to the supplier, the assay limit of detection is ~110% of the signal for blank (buffer instead of sample). In addition, standard curve was measured as recommended with Trichoderma mold cellulase (at recommended pH 5.0), but in addition also with Bacillus amyloliquefaciens cellulase (Megazyme; at recommended pH 6.0). Both gave near-linear standard curve with good sensitivity.
(§2) Short-term and long-term effect of biocides on cellulase activity of process samples was tested with laboratory incubations of recycled fiber (RCF) pulp samples at 40° C.

ATP = ATP measured from pulp bottles; type: cell-based; details: after 2 d
Procedure: (§3) 50 g liner board (from two different mills: 50% from a mill using ~50% unbleached kraft pulp and ~50% recycled fiber and 50% from a mill using 100% recycled fiber) was re-pulped with process water from a third mill using recycled fiber. The final consistency of the pulp was 1.0%. The pulp suspension was divided into 12 bottles and starch suspension (native potato starch) was added into each bottle, so that the concentration of added starch was 1.5 g/l. Six of the bottles (numbers 1-6) were put into an incubator with no other treatment. The other 6 bottles (numbers 7-12) were first pasteurized (1 h, +80° C.) in order to inactivate any enzymes present. After that, the bottles were treated with a biocide (50 mg/l monochloramine, as active chlorine). After this, all 12 bottles were kept at +40° C. with shaking for 4 days. During the incubation, 10 mg/l monochloramine was added daily into the bottles 7-12). At the beginning of the incubation, the pH of the pulp was 6.0, redox −46 mV and conductivity 4.8 mS/cm.
After 2 d, ATP was measured from each bottle and was 1000-fold higher in non-treated than treated bottles (average 71 000 pg/ml, st.dev. 3800, vs. average 70, st.dev. 7 pg/ml, respectively).

Aerobic bacteria = experiment: Culturable aerobic bacterial count in pulp; type: cell-based
Procedure: as §2, §1
as §3, with “After this, all 12 bottles were kept at +40° C. with shaking for 4 days. During the incubation, 10 mg/l monochloramine was added daily into the bottles 7-12).” left out

[1] = RCF pulp, MCA Day 1 50 mg/l, Day 2 and 3 10 mg/l, Days 4-8 no addition
[2] = pasteurized 1 h +80° C., 50 mg/l monochloramine then 10 mg/l daily, 4 d at +40° C., n = 6

In the case of `NCl` [MCA, monochloramine], the “Anaerobic bacteria, Average” value (Anaerobic bacteria) is reported as 970 cfu/ml, the “cellulase activity in process sample” value (cellulase; 5 d after the last biocide dosage, corresponding to 134% of the blank) is reported as ~ 0.2 mU/ml and the “Cellulase activity at 7 d, % compared to blank” value (cellulase; [1]) is reported as 134%. For the same compound, the “Cellulase activity, Average” value (cellulase; [2]) was 0.44 mU/ml, the “ATP higher in non-treated than treated bottles” value (ATP) was 1000 fold and the “ATP, average” value (ATP; treated bottles, 50 mg/l monochloramine then 10 mg/l daily, +40° C.) was 70 pg/mL. For the same compound, the “reduction of total CFUs” value (Aerobic bacteria; 3-day experiment, daily dosages of MCA) was 5 orders of magnitude, the “Aerobic bacteria, 3 d, cfu/ml” value (Aerobic bacteria; RCF pulp, MCA Day 1 50 mg/l, Day 2 and 3 10 mg/l) was 6000 cfu/ml and the “Aerobic bacteria, 6 d, cfu/ml” value (Aerobic bacteria; [1]) was 30 000 000 cfu/ml. The “Aerobic bacteria, Average” value (Aerobic bacteria; [2]) was 8 700 cfu, ml.

— US12686971B2, “Method of controlling enzymatic activities and tools related thereto” (KEMIRA OYJ, priority 2020, dated 2026)
